# Key:
# [1] = tested on: Pseudoperonospora cubensis; experiment: Fungicidal activity against Pseudoperonospora cubensis; format: functional, organism-based
# Podosphaera fuliginea = experiment: Fungicidal activity against Podosphaera fuliginea; format: functional, organism-based
# Myzus persicae = experiment: Insecticidal activity against Myzus persicae (green peach aphid) assessed as mortality; format: functional
SMILES,EC50 [1] [ppm],EC50 (Podosphaera fuliginea) [ppm],LC50 (Myzus persicae) [µg/mL]
COC(c1cc(C)no1)c1ccccc1/C=N/N=C(\C)c1ccc(Cl)c(Cl)c1 (racemic),32,2,53
CO[C@@H](c1cc(C)no1)c1ccccc1/C=N/N=C(\C)c1ccc(Cl)c(Cl)c1,16,0.7,20
CO[C@H](c1cc(C)no1)c1ccccc1/C=N/N=C(\C)c1ccc(Cl)c(Cl)c1,> 500,8.8,> 250

# — ChEMBL document CHEMBL3046225, “Effects of Enantiomerism on Fungicidal and Insecticidal Activities of (-Methoxybenzyl)isoxazoles” (J Pestic Sci, 2000)
